From US20200237871A1, “METHODS FOR MITIGATING LIVER INJURY AND PROMOTING LIVER HYPERTROPHY, REGENERATION AND CELL ENGRAFTMENT IN CONJUNCTION WITH RADIATION AND/OR RADIOMIMETIC TREATMENTS” (Janssen Pharmaceutica NV, priority 2019, published 2020)
“Also recorded” adds a separate entry of the source.

Key:
Assay type in all cases: in vivo, mouse
DPPIV KO mice = assay: Engraftment of transplanted LSECs and hepatocytes by DPPIV immunostaining after HIR (Example 7); details: Study A
Experimental: 8-12-week-old male Di-peptyl peptidase IV knockout (Dppiv^−/−) mice and 8-12-week-old male C57BL/6 mice were used in this study.
The methods were identical to Experiment 5 as described above; including the preparation of test articles (solutions of RWJ-800088), isolation and transplant of LSECs, and Hepatic irradiation. In addition, Romiplostim was purchased from pharmacy and came in 250 μg powder. It was reconstituted per manufacturers description using solvent for solution for injection. After reconstitution, a deliverable volume of 0.5 mL solution contained 250 μg of romiplostim (500 μg/mL).
Animals were weighed in the beginning of the experiment.
The mice were transplanted with DPPIV^+ 5×10^5 liver sinusoidal endothelial cells (LSECs) intrasplenically 4 or 5 days later. The mice were then injected with 300 μg/kg of RWJ-800088 or Romiplostim intraperitoneally 10 minutes after LSEC transplantation as shown in Table 7.
The mice were then monitored until they made a full recovery and returned to the cage. The mice were followed for 2 and 5 months and necropsied. The liver was excised and prepared for the frozen section. The immunostaining of DPPIV activity was performed to examine the repopulation of the transplanted DPPIV^+ cells in the liver. […]

Hemophilia A mice = assay: Survival after tail bleed challenge (Example 6); details: HIR+LSECs+drug, control Hemophilia A mice 100% died within 5 days
Text: 8-16-week-old male C57/BL6 mice, 8-16-week-old female and male B6129SF2/J mice (donor for isolating LSECs) and 8-16-week-old female and male Hemophilia mice (F^8tm1Kaz) mice were used in this study. Mice were housed in groups of up to 5 in micro-isolator cages on stainless steel racks (Allentown, Inc., Allentown, N.J.) with a total floor space of 500 cm^2. The cages utilized an external water bottle and a dual feeder rack (Fisher Scientific, Hampton, N.H.). These cages were stored in the storage rack which provided temperature, humidity, and ventilation control to each individual cage (Allentown, Inc.). Bed-o'Cobs ⅛″ (Fisher Scientific) were used as bedding material in each cage.
The methods were identical to Experiment 5 as described above; including the preparation of test articles (solutions of RWJ-800088 and AdHGF), isolation and transplant of LSECs, and Hepatic irradiation.
The livers of mice were irradiated at 50 Gy by using an X-ray irradiator (SARRP). At 24 hours post-irradiation, the LSECs (1×10^6 cells/mouse) were injected to the mouse through tail vein. An incision was made in the tail from each mouse at day 60 after hepatic irradiation (HIR) and subjected to the bleeding test.
RWJ-800088 (300 μg/kg) was administrated subcutaneously at 10 min after LSEC transplantation. AdHGF at 1×10^9 PFU/mouse was administrated intraperitoneally at 24 hours after LSEC transplantation. […]

DPPIV−/− knockout mice = assay: Relative change of dissected liver lobe size after hepatic irradiation (Example 2)
Experimental: 8-12-week-old male and female Di-peptyl peptidase IV (DPPIV) −/− knockout mice and 8-12-week-old male and female C57Bl6 mice were used in this study. Animals were weighed in the beginning of the experiment and before tissue collection. All animals were housed in the Institute for Animal Studies at Albert Einstein College of medicine and fed regular rodent chow. All experiments were performed to according to protocols approved by Institutional Animal Care and Use Committee at Albert Einstein College of Medicine. Animals were made cirrhotic using CCl4 administration (intraperitoneal [IP] injections twice a week for at least 11 weeks).
Image-guided external beam irradiation was performed using a small animal radiation research platform (SARRP, Xstrahl Inc., Suwanee, Ga.). Mice were given gastrografin contrast through gavage to improve visualization of the gastrointestinal (GI) tract. After approximately 2 minutes, mice were positioned on a tubular couch and anesthetized with ˜2% Isofluorane (Isothesia, USP) in 2 L/min pure oxygen. A cone-beam computed tomography (CBCT) scan was acquired and a treatment plan irradiating the median lobe and right lobe was generated using the MuriPlan software. […]

## methoxypolyethyleneglycol20000-propionyl-L-Isoleucyl-L-Glutamyl-Glycyl-L-Prolyl-L-Threonyl-L-Leucyl-L-Arginyl-L-Glutaminyl-L-2-Naphthylalanyl-L-Leucyl-L-Alanyl-L-Alanyl-L-Arginyl-Sarcosyl-Ne-(methoxypolyethyleneglycol20000-propionyl-L-Isoleucyl-L-Glutamyl-Glycyl-L-Prolyl-L-Threonyl-L-Leucyl-L-Arginyl-L-Glutaminyl-L-2-Naphthyl alanyl-L-Leucyl-L-Alanyl-L-Alanyl-L-Arginyl-Sarcosyl-)-Lysinamide [RWJ-800088]
DPPIV KO mice; 2 months after HIR, 50 Gy, LSECs 4 or 5 days after HIR, 300 μg/kg intraperitoneally 10 minutes after LSEC transplantation
  repopulation of LSECs in the irradiated liver tissue (DPPIV immunostaining): repopulation of LSECs in the irradiated liver tissue was observed
DPPIV KO mice; 5 months after HIR, two surviving mice (mouse 1: median, right, left lobes; mouse 2: median and right lobes), listed as RWJ-80088
  DPPIV staining of liver lobes: extensively positive staining; also recorded: strong DPPIV staining
DPPIV KO mice; one mouse at 2 months after HIR, median lobe least area covered
  DPPIV staining of 4 different liver lobes: All 4 lobes showed positive staining
Hemophilia A mice
  survival 30 days post tail bleed challenge: 100%
DPPIV−/− knockout mice; 2-months post-HIR, HIR then LSECs+/−RWJ-800088 at 24-hours post-HIR
  volume of the non-irradiated left lobe: trend for an increase
DPPIV−/− knockout mice; RWJ-800088 and HIR only
  size of the irradiated lobes (median and right): trend for a reduction
